Source: paper PMC4700268 (Frontiers in Pharmacology, 2016)
Read-outs that look alike come from different tables or passages of the source.

What was measured:
[1] = ref Cundy, 1999; Kearney et al., 2005; Delahunty et al., 2006; cited from earlier work
[2] = molecular target: T1, hCNT2 (Homo sapiens, UniProt O43868); experiment: Inhibition of [3H]uridine uptake in hCNT2 transfected MDCK II cells; type: in vitro ADME; set-up: host or cells: MDCK II cells, transient transfection; settings: 1 μM [3H]uridine, 0–1000 μM, 2 min, MDCK II
T1 sequence (O43868 1-658): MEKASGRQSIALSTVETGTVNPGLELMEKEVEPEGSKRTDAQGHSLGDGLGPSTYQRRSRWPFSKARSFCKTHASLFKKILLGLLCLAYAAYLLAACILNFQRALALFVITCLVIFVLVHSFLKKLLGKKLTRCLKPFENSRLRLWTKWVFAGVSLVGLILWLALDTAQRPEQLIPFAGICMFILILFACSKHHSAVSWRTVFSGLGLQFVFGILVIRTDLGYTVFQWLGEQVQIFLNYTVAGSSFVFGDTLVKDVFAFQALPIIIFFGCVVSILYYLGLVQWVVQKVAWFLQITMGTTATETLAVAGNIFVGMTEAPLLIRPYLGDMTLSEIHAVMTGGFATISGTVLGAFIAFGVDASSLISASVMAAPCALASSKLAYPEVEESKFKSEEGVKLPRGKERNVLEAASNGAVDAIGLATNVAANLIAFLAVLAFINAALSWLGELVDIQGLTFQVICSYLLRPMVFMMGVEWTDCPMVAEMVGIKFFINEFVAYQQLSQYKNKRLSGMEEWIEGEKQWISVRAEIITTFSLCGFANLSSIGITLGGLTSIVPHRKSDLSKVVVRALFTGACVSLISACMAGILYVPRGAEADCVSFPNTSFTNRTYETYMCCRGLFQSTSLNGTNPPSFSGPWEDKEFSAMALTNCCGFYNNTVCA
Method: (§1) Inhibitory transport assays were carried out in 24-well plates as described previously ([Mandikova et al., 2013]). Transport assays in HeLa cells transiently transfected with the hOAT1 expression construct were performed 48 h after transfection. Transport assays in MDCK II cells transiently transfected with hOCT2, hCNT2 or hCNT3 were performed 24 h after transfection. The cultivation medium was removed and the cells were washed with transport solution and preincubated for 10 min at 37°C. The standard radiolabeled substrate or tested radioactive antiviral substance dissolved in transport solution was added to the cells and incubated for 2 min. [^3H]PAH (1 μM) was used as a prototypical substrate for OATs, [^3H]MPP^+ (1 μM) for OCTs and [^3H]uridine (1 μM) for CNTs. […] After the designated time period, the incubation was stopped by washing the cells twice with ice-cold solution containing 137 mM NaCl and 10 mM HEPES, pH 7.4. The cells were disintegrated with 0.1 mL of Triton X 0.5% in 100 mM NaOH for 1 h.
(§2) IC50 values were calculated using non-linear regression analysis using GraphPad Prism software (version 6).

[3] = system: HeLa cells transiently transfected with hOAT1; experiment: MTS cell viability assay in hOAT1 transfected HeLa cells; settings: 24 h, hOAT1 vs empty vector transfected HeLa cells
Method: (§3) The Hela cells were plated in a 96-well plate and transfected with hOAT1 as described above. […] The controls were prepared simultaneously. After 24 h of incubation, the reagent from the kit CellTiter 96 AQueous One Solution Cell Proliferation Assay (CellTiter 96, PROMEGA, USA) was added. After 1.5 h of incubation at 37°C the absorbance was recorded at 490 nm.

[4] = molecular target: T2, hOAT1 (Homo sapiens, UniProt Q4U2R8); set-up: method as in Ho et al. (2000); settings: ref Ho et al. (2000); read-out: Km in CHO cells stably expressing hOAT1; cited from earlier work
T2 sequence (Q4U2R8 1-563): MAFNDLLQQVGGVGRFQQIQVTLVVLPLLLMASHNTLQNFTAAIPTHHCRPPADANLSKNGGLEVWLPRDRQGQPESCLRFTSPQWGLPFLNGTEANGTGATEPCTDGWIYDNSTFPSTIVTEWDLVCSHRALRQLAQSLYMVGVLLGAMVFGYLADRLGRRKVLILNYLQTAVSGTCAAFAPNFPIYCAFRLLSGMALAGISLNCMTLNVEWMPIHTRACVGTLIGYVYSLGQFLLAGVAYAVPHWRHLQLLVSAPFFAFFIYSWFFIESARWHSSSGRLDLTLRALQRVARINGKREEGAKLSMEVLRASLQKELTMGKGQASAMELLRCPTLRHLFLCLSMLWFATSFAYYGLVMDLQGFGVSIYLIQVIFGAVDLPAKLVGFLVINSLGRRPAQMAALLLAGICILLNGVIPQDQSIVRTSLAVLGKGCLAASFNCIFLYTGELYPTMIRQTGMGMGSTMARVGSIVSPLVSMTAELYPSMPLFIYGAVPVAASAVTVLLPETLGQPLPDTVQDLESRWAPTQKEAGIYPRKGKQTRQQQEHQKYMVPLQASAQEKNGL

[5] = molecular target: T3, hCNT3 (Homo sapiens, UniProt Q9HAS3); experiment: Inhibition of [3H]uridine uptake in hCNT3 transfected MDCK II cells; type: in vitro ADME; set-up: host or cells: MDCK II cells, transient transfection; settings: 1 μM [3H]uridine, 0–1000 μM, 2 min, MDCK II
T3 sequence (Q9HAS3 1-691): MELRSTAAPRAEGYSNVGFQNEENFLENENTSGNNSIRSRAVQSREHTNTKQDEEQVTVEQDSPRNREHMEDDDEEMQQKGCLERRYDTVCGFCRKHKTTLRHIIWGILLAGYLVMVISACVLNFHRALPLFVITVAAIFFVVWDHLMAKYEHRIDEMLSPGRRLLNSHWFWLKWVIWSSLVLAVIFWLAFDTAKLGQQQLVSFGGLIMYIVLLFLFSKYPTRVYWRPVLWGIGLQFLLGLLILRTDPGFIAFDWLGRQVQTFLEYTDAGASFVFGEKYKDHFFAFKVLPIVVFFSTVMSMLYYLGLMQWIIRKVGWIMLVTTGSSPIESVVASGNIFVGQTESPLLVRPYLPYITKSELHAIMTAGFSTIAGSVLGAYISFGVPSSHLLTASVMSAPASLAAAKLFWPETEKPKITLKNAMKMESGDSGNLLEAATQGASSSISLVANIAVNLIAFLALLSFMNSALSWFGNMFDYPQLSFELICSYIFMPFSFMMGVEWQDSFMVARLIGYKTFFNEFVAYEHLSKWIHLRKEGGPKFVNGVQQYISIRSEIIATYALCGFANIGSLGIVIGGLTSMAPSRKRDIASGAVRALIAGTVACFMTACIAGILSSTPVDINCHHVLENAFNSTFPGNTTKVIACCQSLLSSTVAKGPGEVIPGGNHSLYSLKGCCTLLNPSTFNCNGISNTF
Method: as §1, §2

[6] = system: HeLa cells transiently transfected with hOAT1
Method: as §3

[7] = substrate: C=C1[C@H](CO)[C@@H](O)C[C@@H]1n1cnc2c(=O)[nH]c(N)nc21; experiment: not read; type: in vitro ADME, human; settings: other: HeLa cells transiently transfected with hOAT1, 5 min, 37°C
[8] = substrate: C=C1[C@H](CO)[C@@H](O)C[C@@H]1n1cnc2c(=O)[nH]c(N)nc21; experiment: not read; settings: 5 min, 37°C

| Molecule | Therapeutic plasma levels achieved in humans [1] [µM] | Inhibitory effect on hCNT2 [2] | Effect of hOAT1 expression on cytotoxicity (cell viability) [3] | Inhibitory effect on hCNT3 [5] | other results |
| --- | --- | --- | --- | --- | --- |
| Nc1ncnc2c1ncn2CCOCP(=O)(O)O [adefovir] | 0.1 | not observed | significantly enhanced the cytotoxic effect | not observed | Km [4]: 23.8 µM |
| Nc1ccn(C[C@@H](CO)OCP(=O)(O)O)c(=O)n1 [cidofovir] | 70 | not observed | significantly enhanced the cytotoxic effect | not observed | – |
| C[C@H](Cn1cnc2c(N)ncnc21)OCP(=O)(O)O [tenofovir] | 0.5 | not observed | – | not observed | Effect of hOAT1 expression on cytotoxicity (cell viability) [6]: significantly enhanced the cytotoxic effect |
| hOAT1 (Homo sapiens) (protein, host or cells: HeLa cells, transient transfection) MAFNDLLQQVGGVGRFQQIQVTLVVLPLLLMASHNTLQNFTAAIPTHHCRPPADANLSKNGGLEVWLPRDRQGQPESCLRFTSPQWGLPFLNGTEANGTGATEPCTDGWIYDNSTFPSTIVTEWDLVCSHRALRQLAQSLYMVGVLLGAMVFGYLADRLGRRKVLILNYLQTAVSGTCAAFAPNFPIYCAFRLLSGMALAGISLNCMTLNVEWMPIHTRACVGTLIGYVYSLGQFLLAGVAYAVPHWRHLQLLVSAPFFAFFIYSWFFIESARWHSSSGRLDLTLRALQRVARINGKREEGAKLSMEVLRASLQKELTMGKGQASAMELLRCPTLRHLFLCLSMLWFATSFAYYGLVMDLQGFGVSIYLIQVIFGAVDLPAKLVGFLVINSLGRRPAQMAALLLAGICILLNGVIPQDQSIVRTSLAVLGKGCLAASFNCIFLYTGELYPTMIRQTGMGMGSTMARVGSIVSPLVSMTAELYPSMPLFIYGAVPVAASAVTVLLPETLGQPLPDTVQDLESRWAPTQKEAGIYPRKGKQTRQQQEHQKYMVPLQASAQEKNGL | – | – | – | – | Km [7]: 316.5 µM |
| hCNT2 (Homo sapiens) (protein) MEKASGRQSIALSTVETGTVNPGLELMEKEVEPEGSKRTDAQGHSLGDGLGPSTYQRRSRWPFSKARSFCKTHASLFKKILLGLLCLAYAAYLLAACILNFQRALALFVITCLVIFVLVHSFLKKLLGKKLTRCLKPFENSRLRLWTKWVFAGVSLVGLILWLALDTAQRPEQLIPFAGICMFILILFACSKHHSAVSWRTVFSGLGLQFVFGILVIRTDLGYTVFQWLGEQVQIFLNYTVAGSSFVFGDTLVKDVFAFQALPIIIFFGCVVSILYYLGLVQWVVQKVAWFLQITMGTTATETLAVAGNIFVGMTEAPLLIRPYLGDMTLSEIHAVMTGGFATISGTVLGAFIAFGVDASSLISASVMAAPCALASSKLAYPEVEESKFKSEEGVKLPRGKERNVLEAASNGAVDAIGLATNVAANLIAFLAVLAFINAALSWLGELVDIQGLTFQVICSYLLRPMVFMMGVEWTDCPMVAEMVGIKFFINEFVAYQQLSQYKNKRLSGMEEWIEGEKQWISVRAEIITTFSLCGFANLSSIGITLGGLTSIVPHRKSDLSKVVVRALFTGACVSLISACMAGILYVPRGAEADCVSFPNTSFTNRTYETYMCCRGLFQSTSLNGTNPPSFSGPWEDKEFSAMALTNCCGFYNNTVCA | – | – | – | – | Km ([8]; other: hCNT2 transfected cells): 1522.00 µM |
| hCNT3 (Homo sapiens) (protein) MELRSTAAPRAEGYSNVGFQNEENFLENENTSGNNSIRSRAVQSREHTNTKQDEEQVTVEQDSPRNREHMEDDDEEMQQKGCLERRYDTVCGFCRKHKTTLRHIIWGILLAGYLVMVISACVLNFHRALPLFVITVAAIFFVVWDHLMAKYEHRIDEMLSPGRRLLNSHWFWLKWVIWSSLVLAVIFWLAFDTAKLGQQQLVSFGGLIMYIVLLFLFSKYPTRVYWRPVLWGIGLQFLLGLLILRTDPGFIAFDWLGRQVQTFLEYTDAGASFVFGEKYKDHFFAFKVLPIVVFFSTVMSMLYYLGLMQWIIRKVGWIMLVTTGSSPIESVVASGNIFVGQTESPLLVRPYLPYITKSELHAIMTAGFSTIAGSVLGAYISFGVPSSHLLTASVMSAPASLAAAKLFWPETEKPKITLKNAMKMESGDSGNLLEAATQGASSSISLVANIAVNLIAFLALLSFMNSALSWFGNMFDYPQLSFELICSYIFMPFSFMMGVEWQDSFMVARLIGYKTFFNEFVAYEHLSKWIHLRKEGGPKFVNGVQQYISIRSEIIATYALCGFANIGSLGIVIGGLTSMAPSRKRDIASGAVRALIAGTVACFMTACIAGILSSTPVDINCHHVLENAFNSTFPGNTTKVIACCQSLLSSTVAKGPGEVIPGGNHSLYSLKGCCTLLNPSTFNCNGISNTF | – | – | – | – | Km ([8]; other: hCNT3 transfected cells): 99.02 µM |
